ChEMBL document CHEMBL6121010, “Novel antileukemic compound with sub-micromolar potency against STAT5 addicted myeloid leukemia cells” (Eur J Med Chem, 2025)
Active and inactive are the calls of the source. No cut-off for these calls is given here.

Columns and labels:
KU812 cell line [1] = experiment: Antileukemic activity against human KU812 cell line assessed as inhibition of cell growth incubated for 48 hrs by MTT assay; assay type: functional, cell-based; conditions: KU812, 48 h
MV4-11 [2] = experiment: Antileukemic activity against human MV4-11 cell line assessed as inhibition of cell growth incubated for 48 hrs by MTT assay; assay type: functional, cell-based; conditions: MV4-11, 48 h
K562 [3] = experiment: Antileukemic activity against human K562 assessed as cell viability incubated for 48 hrs by MTT assay; assay type: functional, cell-based; conditions: K562, 48 h
KCL-22 [4] = experiment: Antileukemic activity against human KCL-22 assessed as cell viability incubated for 48 hrs by MTT assay; assay type: functional, cell-based; conditions: KCL-22, 48 h
MOLM-13 [5] = experiment: Antileukemic activity against human MOLM-13 assessed as cell viability incubated for 48 hrs by MTT assay; assay type: functional, cell-based; conditions: MOLM-13, 48 h
[6] = Cytotoxicity against human HS-27A assessed as cell viability incubated for 48 hrs by MTT assay; assay type: toxicity, cell-based; conditions: HS-27A cells
[7] = Cytotoxicity against Bone marrow cell (unknown origin) assessed as cell viability incubated for 48 hrs by MTT assay; assay type: toxicity, cell-based; conditions: bone marrow cells (unknown origin)
K562 [8] = experiment: Antiproliferative activity against human K562 cells measured after 72 hrs by MTT assay; assay type: functional, cell-based
KU812 cell line [9] = experiment: Antiproliferative activity against human KU812 cell line measured after 72 hrs by MTT assay; assay type: functional, cell-based
KCL-22 [10] = experiment: Antiproliferative activity against human KCL-22 cells measured after 72 hrs by MTT assay; assay type: functional, cell-based
MV4-11 [11] = experiment: Antiproliferative activity against human MV4-11 cells measured after 72 hrs by MTT assay; assay type: functional, cell-based
MOLM-13 [12] = experiment: Antiproliferative activity against human MOLM-13 cells measured after 72 hrs by MTT assay; assay type: functional, cell-based
[13] = Potency index, ratio of Pimozide EC50 to test compound EC50 for antileukemic activity against human KU812 cell line assessed as inhibition of cell growth incubated for 48 hrs by MTT assay; assay type: functional
[14] = Potency index, ratio of Pimozide EC50 to test compound EC50 for antileukemic activity against human K562 cells assessed as inhibition of cell growth incubated for 48 hrs by MTT assay; assay type: functional
[15] = Potency index, ratio of Pimozide EC50 to test compound EC50 for antileukemic activity against human KCL-22 cells assessed as inhibition of cell growth incubated for 48 hrs by MTT assay; assay type: functional
MV4-11 [16] = experiment: Potency index, ratio of Pimozide EC50 to test compound EC50 for antileukemic activity against human MV4-11 cells assessed as inhibition of cell growth incubated for 48 hrs by MTT assay; assay type: functional
[17] = Potency index, ratio of Pimozide EC50 to test compound EC50 for antileukemic activity against human MOLM-13 cells assessed as inhibition of cell growth incubated for 48 hrs by MTT assay; assay type: functional
[18] = target: T1, Signal transducer and activator of transcription 5A (Homo sapiens) (UniProt P42229); experiment: Inhibition of STAT5A phosphorylation in human KU812 cell line incubated for 24 hrs by Western blotting analysis; assay type: cell-based
T1 sequence (whole entry): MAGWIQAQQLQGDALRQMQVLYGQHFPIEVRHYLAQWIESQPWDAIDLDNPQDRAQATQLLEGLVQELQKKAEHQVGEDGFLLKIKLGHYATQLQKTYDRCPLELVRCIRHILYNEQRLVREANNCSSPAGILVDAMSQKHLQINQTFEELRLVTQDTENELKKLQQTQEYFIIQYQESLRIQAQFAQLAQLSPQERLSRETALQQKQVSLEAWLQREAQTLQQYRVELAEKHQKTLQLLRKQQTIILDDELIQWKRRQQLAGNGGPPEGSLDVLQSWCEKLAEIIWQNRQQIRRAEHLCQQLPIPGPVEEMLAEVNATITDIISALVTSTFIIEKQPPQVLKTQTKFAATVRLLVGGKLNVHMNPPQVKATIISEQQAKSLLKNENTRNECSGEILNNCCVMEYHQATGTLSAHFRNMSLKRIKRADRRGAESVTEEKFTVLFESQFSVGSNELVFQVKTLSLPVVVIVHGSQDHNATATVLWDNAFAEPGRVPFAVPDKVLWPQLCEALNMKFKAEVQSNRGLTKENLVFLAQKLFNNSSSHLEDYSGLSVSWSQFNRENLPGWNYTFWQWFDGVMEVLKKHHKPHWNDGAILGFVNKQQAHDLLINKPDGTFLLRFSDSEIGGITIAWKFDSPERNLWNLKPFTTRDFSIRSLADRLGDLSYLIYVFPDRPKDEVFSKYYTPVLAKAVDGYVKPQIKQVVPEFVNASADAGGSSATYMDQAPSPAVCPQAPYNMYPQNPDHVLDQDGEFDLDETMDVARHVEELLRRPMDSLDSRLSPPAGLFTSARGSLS

[19] = target: T2, Signal transducer and activator of transcription 5B (Homo sapiens) (UniProt P51692); experiment: Inhibition of STAT5B phosphorylation in human KU812 cell line incubated for 24 hrs by Western blotting analysis; assay type: cell-based
T2 sequence (whole entry): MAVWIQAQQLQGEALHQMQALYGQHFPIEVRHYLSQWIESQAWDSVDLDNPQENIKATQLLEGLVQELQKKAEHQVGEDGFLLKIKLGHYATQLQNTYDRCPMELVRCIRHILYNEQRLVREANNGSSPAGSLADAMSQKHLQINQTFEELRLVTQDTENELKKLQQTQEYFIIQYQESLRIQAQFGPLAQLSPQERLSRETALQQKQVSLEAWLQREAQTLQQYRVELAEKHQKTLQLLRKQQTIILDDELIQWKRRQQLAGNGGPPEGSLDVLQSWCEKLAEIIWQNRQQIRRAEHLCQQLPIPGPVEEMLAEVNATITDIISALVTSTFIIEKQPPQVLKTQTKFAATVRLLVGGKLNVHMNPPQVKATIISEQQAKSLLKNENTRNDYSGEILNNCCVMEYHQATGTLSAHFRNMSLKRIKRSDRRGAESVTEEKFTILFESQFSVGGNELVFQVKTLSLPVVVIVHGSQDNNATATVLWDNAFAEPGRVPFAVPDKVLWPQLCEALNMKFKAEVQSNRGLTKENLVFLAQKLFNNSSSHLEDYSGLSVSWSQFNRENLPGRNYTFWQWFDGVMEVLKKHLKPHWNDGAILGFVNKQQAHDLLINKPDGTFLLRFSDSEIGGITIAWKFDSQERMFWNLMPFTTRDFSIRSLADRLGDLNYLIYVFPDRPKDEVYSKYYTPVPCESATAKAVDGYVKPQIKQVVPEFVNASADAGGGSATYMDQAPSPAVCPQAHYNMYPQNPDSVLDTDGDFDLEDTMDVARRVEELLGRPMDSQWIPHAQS

[20] = target: T1, Signal transducer and activator of transcription 5A (Homo sapiens); experiment: Inhibition of STAT5A phosphorylation in human MV4-11 cells incubated for 24 hrs by Western blotting analysis; assay type: cell-based
[21] = target: T2, Signal transducer and activator of transcription 5B (Homo sapiens); experiment: Inhibition of STAT5B phosphorylation in human MV4-11 cells incubated for 24 hrs by Western blotting analysis; assay type: cell-based
MV4-11 [22] = experiment: Downregulation of STAT5B expression in human MV4-11 cells by Western blot analysis; assay type: functional, cell-based
KU812 [23] = experiment: Downregulation of STAT5B expression in human KU812 cell line by Western blot analysis; assay type: functional, cell-based
MV4-11 [24] = experiment: Downregulation of STAT5A expression in human MV4-11 cells by Western blot analysis; assay type: functional, cell-based
KU812 [25] = experiment: Downregulation of STAT5A expression in human KU812 cell line by Western blot analysis; assay type: functional, cell-based
BaF3 = experiment: Downregulation of STAT5B N642H mutant expression in mouse BaF3 cells incubated for 24 hrs by Western blot analysis; assay type: functional, cell-based; conditions: dose <= 5.0 µM
K562-IMA[r] [26] = experiment: Antiproliferative activity against human Imatinib-resistant K562 cells assessed as inhibition of cell growth at 100 nM measured after 72 hrs by MTT assay; assay type: functional, cell-based
[27] = target: T1, Signal transducer and activator of transcription 5A (Homo sapiens); experiment: Inhibition of STAT5A phosphorylation in human Imatinib-resistant K562 cells up to 5 uM incubated for 24 hrs by Western blotting analysis; assay type: cell-based
[28] = target: T2, Signal transducer and activator of transcription 5B (Homo sapiens); experiment: Inhibition of STAT5B phosphorylation in human Imatinib-resistant K562 cells up to 5 uM incubated for 24 hrs by Western blotting analysis; assay type: cell-based
K562-IMA[r] [29] = experiment: Downregulation of STAT5A expression in human Imatinib-resistant K562 cells by Western blot analysis; assay type: functional, cell-based
K562-IMA[r] [30] = experiment: Downregulation of STAT5B expression in human Imatinib-resistant K562 cells by Western blot analysis; assay type: functional, cell-based
KU812 cell line [31] = experiment: Antileukemic activity against human KU812 cell line co-cultured with human HS-27A in presence of Imatinib; assay type: functional, cell-based
MV4-11 [32] = experiment: Antileukemic activity against human MV4-11 cells co-cultured with human HS-27A in presence of Imatinib; assay type: functional, cell-based
KU812 cell line [33] = experiment: Antileukemic activity against human KU812 cell line co-cultured with human HS-27A in presence of Ara-c; assay type: functional, cell-based
MV4-11 [34] = experiment: Antileukemic activity against human MV4-11 cells co-cultured with human HS-27A in presence of Ara-c; assay type: functional, cell-based

EC50 (MV4-11 [2]): 300 nM
EC50 (K562 [3]): 800 nM
EC50 (MOLM-13 [5]): 300 nM
inhibition [18]: Active
inhibition [19]: Active
inhibition [20]: Active
inhibition [21]: Active
inhibition [27]: Active
inhibition [28]: Active
SMILES: CC1(C)CCN(CCOc2ccc3[nH]ccc3c2)c2cccc(-c3cnc(N)nc3)c21
EC50 (KU812 cell line [1]): 600 nM
EC50 (KCL-22 [4]): 500 nM
EC50 at 48 h [6]: 44.1 µM
EC50 at 48 h [7]: 12 µM
Activity (K562 [8]): Active
Activity (KU812 cell line [9]): Active
Activity (KCL-22 [10]): Active
Activity (MV4-11 [11]): Active
Activity (MOLM-13 [12]): Active
Ratio EC50 [13]: 5
Ratio EC50 [14]: 5
Ratio EC50 [15]: 5
Ratio EC50 (MV4-11 [16]): 5
Ratio EC50 [17]: 5
Activity (MV4-11 [22]): Active
Activity (KU812 [23]): Active
Activity (MV4-11 [24]): inactive
Activity (KU812 [25]): inactive
Activity (BaF3): Dose-dependent-effect
Activity (K562-IMA[r] [26]): Active
Activity (K562-IMA[r] [29]): Active
Activity (K562-IMA[r] [30]): Active
Activity (KU812 cell line [31]): Active
Activity (MV4-11 [32]): Active
Activity (KU812 cell line [33]): Active
Activity (MV4-11 [34]): Active
